Among the data in patent US20250114456A1, “ENHANCED IMMUNOTHERAPEUTIC METHOD COMPRISING COMBINED ADMINISTRATION OF PHOTODYNAMIC / RADIOTHERAPEUTIC COMPOUNDS AND IMMUNOTHERAPEUTIC AGENTS” (Theralase Technologies, Inc., priority 2023, published 2025) are anti-tumor activity, CD47 expression and ATP release values, retold here.

One assay has as its system VISTA and PDL1/L2. The conditions noted are these: multiple preclinical models; cited from earlier work.
Assay [1] relates to CD47 expression in A549 human Non-Small Cell Lung Cancer cells. Nature of the assay: CD47 expression by flow cytometry, A549 cells, with or without radiation. The assay is classed as cell-based. The conditions noted are these: 4 hours, overnight incubation, FIG. 6. Here is the method:
A549 human Non-Small Cell Lung Cancer (“NSCLC”) cells were treated with RUVIDAR or RUTHERRIN for four (4) hours, then cells were treated with radiation or left untreated and then incubated further overnight before cell collection and analysis of CD47 expression by flow cytometry.
On the technique in general: A flow cytometer gives signals particle by particle.

The test system of a further assay is A549 human NSCLC cells. Briefly: ATP secretion quantification in supernatant, A549 cells, with radiation. The conditions noted are these: 4 hours, combined with radiation, supernatant 1 hour after, FIG. 8. The assay is classed as cell-based. Here is the method: A549 human NSCLC cells were treated with RUVIDAR or RUTHERRIN for four (4) hours, then cells were treated with radiation or left untreated, and then incubated further for one (1) hour before collection of supernatant for ATP secretion quantification.

On to `C[C@@H](O)[C@H](NC(=O)N[C@@H](CC(N)=O)c1nc([C@H](N)CO)no1)C(=O)O` [CA-170], for which the anti-tumor activity entry with VISTA and PDL1/L2 is listed as “demonstrated anti-tumor activity in multiple preclinical models”.

For the compound `Cc1ccnc(-c2cc(C)ccn2)c1.Cc1ccnc(-c2cc(C)ccn2)c1.[Cl-].[Cl-].[Ru+2].c1csc(-c2ccc(-c3ccc(-c4nc5c6cccnc6c6ncccc6c5[nH]4)s3)s2)c1` [RUVIDAR, Ru(4,4′-dimethyl-2,2′-bipyridine)2(2-(2′,2″:5″,2′-terthiophene)-imidazo[4,5-f][1,10]phenanthroline) chloride], the CD47 expression result in assay [1] (radiation treatment added) is recorded as “significantly reduced expression”; in assay [1] (without radiation treatment), “downregulated CD47 expression”. Moreover, the ATP release entry with A549 human NSCLC cells was “significantly increased ATP release”.
